Source: US20250145665A1, “MACROCYCLIC PEPTIDES USEFUL AS MODULATORS OF TNF ALPHA” (Bristol-Myers Squibb Company, priority 2023, published 2025)
Starred links: 1 amine or outer side, 2 acyl side, 3 side chain; linkers in the order of their positions; H or OH if unused. Positions of bridges follow the written chain, without caps; N, C: chain ends. Non-standard residues stand in square brackets, D forms with d. Residues, ends and D or L forms follow the SMILES beside them. ξ: configuration not given here. *: point of attachment. Bip(4'-NHCO-C6H4-3-CH2COOH) = N[C@@H](Cc1ccc(-c2ccc(NC(=O)c3cccc(CC(=O)O)c3)cc2)cc1)C(=O)O; X5 = Cn1nc(C(=O)Nc2ccc(-c3ccc(C[C@H](N[*:1])C(=O)[*:2])cc3)cc2)c2ccccc21; Bip(4'-NH) = O=C([C@H](Cc1ccc(-c2ccc(N[*:3])cc2)cc1)N[*:1])[*:2]; Bip(4'-COOH) = N[C@@H](Cc1ccc(-c2ccc(C(=O)O)cc2)cc1)C(=O)O; Bip(4'-NHAc) = CC(=O)Nc1ccc(-c2ccc(C[C@H](N)C(=O)O)cc2)cc1; Ala(morpholin-4-yl) = N[C@@H](CN1CCOCC1)C(=O)O; Benzoyl(3-OCH2COOH) = O=C(O)COc1cccc(C(=O)*)c1; Bip = N[C@@H](Cc1ccc(-c2ccccc2)cc1)C(=O)O; Ala(4-THP) = N[C@@H](CC1CCOCC1)C(=O)O; 2Pal = N[C@@H](Cc1ccccn1)C(=O)O; 2Thi = N[C@@H](Cc1cccs1)C(=O)O; Cha = N[C@@H](CC1CCCCC1)C(=O)O; Tle = CC(C)(C)[C@H](N)C(=O)O; ξIle = CC[C@H](C)C(N)C(=O)O; Sar = CNCC(=O)O

target: TNFα (Homo sapiens, UniProt P01375); test: TNF-Induced HEK-Blue Assay; format: cell-based; conditions: HEK-Blue-CD40L cells, NF-kB-driven secreted alkaline phosphatase reporter; TNFα 0.5 ng/ml; 18 h; read-out: TNF induced HEK-Blue assay IC50 value
Sequence (P01375 77-233 limits assumed): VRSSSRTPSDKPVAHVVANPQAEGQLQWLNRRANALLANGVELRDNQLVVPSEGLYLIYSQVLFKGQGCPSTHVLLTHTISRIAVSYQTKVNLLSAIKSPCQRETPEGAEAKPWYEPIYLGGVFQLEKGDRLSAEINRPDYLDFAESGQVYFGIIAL

SMILES	IC50 [µM]
CC(=O)Nc1ccc(-c2ccc(C[C@@H]3NC(=O)[C@H](Cc4ccc(-c5ccccc5)cc4)NC(=O)[C@H](CN4CCOCC4)NC(=O)CSC[C@@H](C(=O)NCC(N)=O)NC(=O)[C@H](CC(C)C)NC(=O)[C@H](Cc4cnc[nH]4)NC(=O)[C@H](C(C)C)NC(=O)[C@@H]4CCCN4C(=O)[C@H](C(C)C)NC(=O)[C@@H](CCCNC(=N)N)NC(=O)[C@H](CC(=O)O)NC(=O)[C@H](Cc4ccc(O)cc4)NC(=O)CN(C)C3=O)cc2)cc1 [Example 213] ({CH2CO}-[Ala(morpholin-4-yl)][Bip][Bip(4'-NHAc)][Sar]YD[dR]VPVHLCG-NH2; thioether N-13)	< 0.05
CC[C@H](C)C1NC(=O)[C@@H]2CCCN2C(=O)[C@H]([C@@H](C)CC)NC(=O)[C@@H](CCCNC(=N)N)NC(=O)[C@H](CC(=O)O)NC(=O)[C@H](Cc2ccccn2)NC(=O)CN(C)C(=O)[C@H](Cc2ccc(-c3ccc(NC(C)=O)cc3)cc2)NC(=O)[C@H](Cc2ccc(-c3ccccc3)cc2)NC(=O)[C@H](CC2CCCCC2)NC(=O)CSC[C@@H](C(=O)NCC(N)=O)NC(=O)[C@H](CC(C)C)NC(=O)[C@H](CCCNC(=N)N)NC1=O (some centres unmarked) [Example 290] ({CH2CO}-[Cha][Bip][Bip(4'-NHAc)][Sar][2Pal]D[dR]IP[ξIle]RLCG-NH2; thioether N-13)	0.05 to 0.2
CC(C)C[C@@H]1NC(=O)[C@H](CCCNC(=N)N)NC(=O)[C@H](C(C)C)NC(=O)[C@@H]2CCCN2C(=O)[C@H](C(C)C)NC(=O)[C@@H](CCCNC(=N)N)NC(=O)[C@H](CC(=O)O)NC(=O)[C@@H]2CCCN2C(=O)CN(C)C(=O)[C@H](Cc2ccc(-c3ccc(NC(=O)c4nn(C)c5ccccc45)cc3)cc2)NC(=O)[C@H](Cc2ccc(-c3ccccc3)cc2)NC(=O)[C@H](CC2CCOCC2)NC(=O)CSC[C@@H](C(=O)NCC(N)=O)NC1=O [Example 304] ({CH2CO}-[Ala(4-THP)][Bip][X5][Sar]PD[dR]VPVRLCG-NH2; thioether N-13)	< 0.05

The next lines start with the values.

IC50 [µM]	SMILES
0.05 to 0.2	CC[C@H](C)C1NC(=O)[C@@H](CCCNC(=N)N)NC(=O)[C@H](CC(=O)O)NC(=O)[C@H](Cc2ccc(O)cc2)NC(=O)CN(C)C(=O)[C@H](Cc2ccc(-c3ccc(NC(C)=O)cc3)cc2)NC(=O)[C@H](Cc2ccc(-c3ccccc3)cc2)NC(=O)[C@H](CN2CCOCC2)NC(=O)CSC[C@@H](C(=O)NCC(N)=O)NC(=O)[C@H](CC(C)C)NC(=O)[C@H](Cc2cccs2)NC(=O)[C@H](C(C)C)NC(=O)[C@@H]2CCCN2C1=O (some centres unmarked) [Example 258] ({CH2CO}-[Ala(morpholin-4-yl)][Bip][Bip(4'-NHAc)][Sar]YD[dR][ξIle]PV[2Thi]LCG-NH2; thioether N-13)
< 0.05	CC[C@H](C)[C@@H]1NC(=O)[C@@H](CCCNC(=N)N)NC(=O)[C@H](CC(=O)O)NC(=O)[C@@H]2CCCN2C(=O)CN(C)C(=O)[C@H](Cc2ccc(-c3ccc(NC(=O)c4cccc(OCC(=O)O)c4)cc3)cc2)NC(=O)[C@H](Cc2ccc(-c3ccc(C(=O)O)cc3)cc2)NC(=O)[C@H](C(C)(C)C)NC(=O)CSC[C@@H](C(=O)NCC(N)=O)NC(=O)[C@H](CC(C)C)NC(=O)[C@H](Cc2cnc[nH]2)NC(=O)[C@H](C(C)C)NC(=O)[C@@H]2CCCN2C1=O [Example 574] ({CH2CO}-[Tle][Bip(4'-COOH)][Bip(4'-NH)](Benzoyl(3-OCH2COOH))[Sar]PD[dR]IPVHLCG-NH2; thioether N-13)
< 0.05	CC(=O)Nc1ccc(-c2ccc(C[C@@H]3NC(=O)[C@H](Cc4ccc(-c5ccccc5)cc4)NC(=O)[C@H](CN4CCOCC4)NC(=O)CSC[C@@H](C(=O)NCC(N)=O)NC(=O)[C@H](CC(C)C)NC(=O)[C@H](CCCNC(=N)N)NC(=O)[C@H](C(C)C)NC(=O)[C@@H]4CCCN4C(=O)[C@H](C(C)C)NC(=O)[C@@H](CCCNC(=N)N)NC(=O)[C@H](CC(=O)O)NC(=O)[C@H](Cc4ccc(O)cc4)NC(=O)CN(C)C3=O)cc2)cc1 [Example 195] ({CH2CO}-[Ala(morpholin-4-yl)][Bip][Bip(4'-NHAc)][Sar]YD[dR]VPVRLCG-NH2; thioether N-13)
0.05 to 0.2	CC[C@H](C)[C@@H]1NC(=O)[C@@H](CCCNC(=N)N)NC(=O)[C@H](CC(=O)O)NC(=O)[C@@H]2CCCN2C(=O)CN(C)C(=O)[C@H](Cc2ccc(-c3ccc(NC(C)=O)cc3)cc2)NC(=O)[C@H](Cc2ccc(-c3ccc(C(=O)O)cc3)cc2)NC(=O)[C@H](C(C)(C)C)NC(=O)CSC[C@@H](C(=O)NCC(N)=O)NC(=O)[C@H](CC(C)C)NC(=O)[C@H](Cc2ccc(O)cc2)NC(=O)[C@H](C(C)C)NC(=O)[C@@H]2CCCN2C1=O [Example 269] ({CH2CO}-[Tle][Bip(4'-COOH)][Bip(4'-NHAc)][Sar]PD[dR]IPVYLCG-NH2; thioether N-13)
< 0.05	CC[C@H](C)[C@@H]1NC(=O)[C@@H](CCCNC(=N)N)NC(=O)[C@H](CC(=O)O)NC(=O)[C@H](Cc2cnc[nH]2)NC(=O)CN(C)C(=O)[C@H](Cc2ccc(-c3ccc(NC(=O)c4cccc(CC(=O)O)c4)cc3)cc2)NC(=O)[C@H](Cc2ccc(-c3ccc(C(=O)O)cc3)cc2)NC(=O)[C@H](C(C)(C)C)NC(=O)CSC[C@@H](C(=O)NCC(N)=O)NC(=O)[C@H](CC(C)C)NC(=O)[C@H](Cc2cnc[nH]2)NC(=O)[C@H](C(C)C)NC(=O)[C@@H]2CCCN2C1=O [Example 482] ({CH2CO}-[Tle][Bip(4'-COOH)][Bip(4'-NHCO-C6H4-3-CH2COOH)][Sar]HD[dR]IPVHLCG-NH2; thioether N-13)
